Source: patent US20160242414A1, “SAFENED HERBICIDAL COMPOSITIONS CONTAINING HALAUXIFEN OR 4-AMINO-3-CHLORO-5-FLUORO-6-(4-CHLORO-2-FLUORO-3-METHOXYPHENYL) PYRIDINE-2-CARBOXYLIC ACID AND METHODS OF USE THEREOF IN TURF” (Dow AgroSciences LLC, priority 2015, published 2016)

Experiments:
[1] = system: perennial ryegrass (LOLPE); experiment: Postemergence turf injury field trial, perennial ryegrass, with Activator 90 adjuvant
Description: (§1) For the ryegrass and tall fescue experiments, research trials were conducted in Indiana at the William H Daniel Turfgrass Research center in West Lafayette, Ind. on well established 10 year old stands of perennial ryegrass and tall fescue that were maintained as a home lawn with regular fertilization, irrigation and a 7.5 cm mowing height. To begin the trial, the research areas were sub-divided into 3 replications of 2.3 m^2 plots in a completely randomized block design for each grass species and spray mixtures were prepared just prior to the treatment by mixing the formulations with water.
Herbicide treatments were applied to ryegrass and tall fescue turfgrass plots in spray applications that included the spray adjuvant Activator 90 at 0.25% (v/v). The plots were treated with a hand held CO2 backpack sprayer equipped with a 3 liter bottle that delivered 804 liters/ha of spray to each plot using a flat fan nozzle. No irrigation, rainfall or mowing occurred until 24 hours after the application. The temperature at the time of the application was 24° C. and the wind speed averaged 4.8 km/hr. There was no cloud cover during the application and the soil was moist. Visual evaluations were made of turf injury for each plot on a 0%-100% scale where 0%=no injury and 100%=death at 0, 7, 14, 28 and 42 days after the application.
The following equation was used to calculate the expected activity of mixtures containing two active ingredients, A and B:
Expected=A+B−(A×B/100) • A=observed efficacy of active ingredient A at the same concentration as used in the mixture; • B=observed efficacy of active ingredient B at the same concentration as used in the mixture.

[2] = system: tall fescue (FESAR); experiment: Postemergence turf injury field trial, tall fescue, with Activator 90 adjuvant; details: 28 days after application
Description: as §1
Herbicide treatments were applied to ryegrass and tall fescue turfgrass plots in spray applications that included the spray adjuvant Activator 90 at 0.25% (v/v). The plots were treated with a hand held CO2 backpack sprayer equipped with a 3 liter bottle that delivered 804 liters/ha of spray to each plot using a flat fan nozzle. No irrigation, rainfall or mowing occurred until 24 hours after the application. The temperature at the time of the application was 24° C. and the wind speed averaged 4.8 km/hr. There was no cloud cover during the application and the soil was moist. Visual evaluations were made of turf injury for each plot on a 0%-100% scale where 0%=no injury and 100%=death at 0, 7, 14, 28 and 42 days after the application. […]

For `CNC.O=C(O)COc1ccc(Cl)cc1Cl` [2,4-D DMA, 2,4-D dimethyl ammonium], the “Observed Injury” value ([1]; 28 days after application, 2,4-D DMA 840 g ae/ha) was 3%, the “Observed Injury” value ([1]; 28 days after application, 2,4-D DMA 1120 g ae/ha) was 7% and the “Observed Injury” value ([1]; 28 days after application, 2,4-D DMA 1680 g ae/ha) was 0%. For the same compound, the “Observed Injury” value ([1]; 28 days after application, 2,4-D DMA 2520 g ae/ha) was 10%, the “Observed Injury” value ([1]; 42 days after application, 2,4-D DMA 840 g ae/ha) was 0% and the “Observed Injury” value ([1]; 42 days after application, 2,4-D DMA 1120 g ae/ha) was 0%. For the same compound, the “Observed Injury” value ([1]; 42 days after application, 2,4-D DMA 1680 g ae/ha) was 0% and the “Observed Injury” value ([1]; 42 days after application, 2,4-D DMA 2520 g ae/ha) was 0%.

With `CNC.COc1c(Cl)ccc(Cl)c1C(=O)O` [Dicamba DMA, dicamba dimethyl ammonium] the “Observed Injury” value ([1]; 28 days after application, dicamba DMA 280 g ae/ha) was 7% and the “Observed Injury” value ([2]; dicamba DMA 280 g ae/ha) was 0%.

`COC(=O)c1nc(-c2ccc(Cl)c(OC)c2F)cc(N)c1Cl` [Halauxifen-Methyl, halauxifen-methyl] was tested, and the “Observed Injury” value ([1]; 28 days after application, halauxifen-methyl 15 g ae/ha, 0%=no injury, 100%=death) was 23%, the “Observed Injury” value ([1]; 28 days after application, halauxifen-methyl 30 g ae/ha) was 33% and the “Observed Injury” value ([1]; 28 days after application, halauxifen-methyl 45 g ae/ha) was 40%. The “Observed Injury” value ([1]; 42 days after application, halauxifen-methyl 15 g ae/ha) was 8%, the “Observed Injury” value ([1]; 42 days after application, halauxifen-methyl 30 g ae/ha) was 12% and the “Observed Injury” value ([1]; 42 days after application, halauxifen-methyl 45 g ae/ha) was 35%. For the same compound, the “Observed Injury” value ([2]; halauxifen-methyl 30 g ae/ha) was 32%.
